Laboratory results as given in PubChem BioAssay AID1902 (Broad Institute, 2009).
Calls of active or inactive are those of the source.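 Rule for the calls: active = EC50 no more than a set limit of log units above the highest dose; inactive = the rest.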

target: S. pyogenes SKKanGAS, kanamycin survival, BacTiterGlo, 6 h; assay: SKKanGAS survival reduction under kanamycin, dose response, streptokinase promoter inhibitor project, SKKanGAS strain, luminescence, dose confirmation (AID 1902);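 note: lower survival reflects blocked streptokinase promoter driving kanamycin resistance gene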

**Q.** How did the EC50 turn out when `Cc1nn(-c2ccccc2)c(Cl)c1C1C(C#N)=C(N)OC2=C1C(=O)CC(C)(C)C2` (stereo not drawn) was run?
**A.** The EC50 was 1.45 µM.

**Q.** Which EC50 does the source give for `O=C(Nc1ccccc1C(=O)O)c1cccc(NC(=O)c2ccc(Br)o2)c1` here?
**A.** The EC50 was 4.96 µM.

**Q.** Which EC50 does the source give for `Cc1nn(Cc2ccc(C(=O)Nc3nc4c(C)cccc4s3)o2)c(C)c1Br` here?
**A.** Its EC50 is 2.85 µM.

**Q.** With `O=C(C[n+]1ccc2ccccc2c1)Nc1cc(C(F)(F)F)ccc1Cl` as the molecule, how does the EC50 read?
**A.** Its EC50 is > 15 µM (inactive).

**Q.** `S=c1[nH]cnc2scc(-c3ccc(Cl)cc3)c12` was tested. Which EC50 did it give?
**A.** The EC50 was 9.77 µM.

**Q.** Which EC50 does the source give for `Cc1ccc(C)c(CN2CCCN(Cc3cc(C)ccc3C)S2(=O)=O)c1` here?
**A.** Its EC50 is 2.58 µM.

**Q.** For `COc1cccc(N/N=C/c2cccc(Br)c2O)c1`, which EC50 is on record?
**A.** The EC50 was 15.6 µM.

**Q.** With `CCC(C)Sc1cc(C(F)(F)F)c(C(=O)Nc2ccc(Cl)cc2)cn1` (stereo not drawn) as the molecule, how does the EC50 read?
**A.** Its EC50 is 7.31 µM.

**Q.** Which EC50 does the source give for `CCCCCC(=O)Cc1cc(O)cc2c1C(=O)Oc1cc(O)c(C(=O)O)c(CCCCC)c1O2` here?
**A.** Its EC50 is 6.67 µM.

**Q.** How did the EC50 turn out when `CC(C)c1ccc2c(c1)C1(NN=C(c3ccccc3)S1)C(=O)N2` (stereo not drawn) was run?
**A.** Its EC50 is less than 0.06 µM.

**Q.** Which EC50 does the source give for `CCN1CCN(C(c2ccc(C(F)(F)F)cc2)c2ccc3cccnc3c2O)CC1` (stereo not drawn) here?
**A.** The EC50 was 1.82 µM.

**Q.** How did the EC50 turn out when `C/C(=N\NS(=O)(=O)c1ccc(C)cc1)c1ccc(C)o1` was run?
**A.** Its EC50 is > 15 µM (inactive).

**Q.** Which EC50 does the source give for `CC1(C)COCN1S(=O)(=O)c1ccc(C(=O)Nc2nnc(-c3ccc(Cl)s3)o2)cc1` here?
**A.** Its EC50 is 0.459 µM.

**Q.** Which EC50 does the source give for `Cc1cc(N/N=C/c2ccccc2O)nc(-c2ccccc2O)n1` here?
**A.** The EC50 was 1.6 µM.

**Q.** `O=c1[nH]c(CSc2ncnc3sccc23)nc2ccccc12` was tested. Which EC50 did it give?
**A.** Its EC50 is 2.25 µM.

**Q.** `O=C(NNC(=O)c1cc(-c2ccc(Cl)cc2)nc2ccccc12)c1csc(N2CCOCC2)n1` was tested. Which EC50 did it give?
**A.** The EC50 was 3.78 µM.

**Q.** For `Cc1cn(-c2cc(C(=O)Nc3ccc(C)c(NC(=O)C(=O)c4c[nH]c5ccccc45)c3)cc(C(F)(F)F)c2)cn1`, which EC50 is on record?
**A.** The EC50 was 2.78 µM.

**Q.** `CCC(C)c1ccccc1NS(=O)(=O)c1cnn(CC)c1` (stereo not drawn) was tested. Which EC50 did it give?
**A.** Its EC50 is > 15 µM (inactive).

**Q.** With `O=C(CN1c2ccccc2Sc2ccccc21)NNC(=O)Nc1cccc(Cl)c1` as the molecule, how does the EC50 read?
**A.** The EC50 was 4.97 µM.

**Q.** For `COc1ccc(C2CC(O)(c3ccccc3)Oc3c(C)ccc(C)c32)cc1` (stereo not drawn), which EC50 is on record?
**A.** The EC50 was > 15 µM (inactive).

**Q.** How did the EC50 turn out when `Oc1c(Cl)cc(Cl)cc1/C=N/NC(=S)NC1CC2C=CC1C2` (stereo not drawn) was run?
**A.** Its EC50 is 0.177 µM.

**Q.** With `O=C(NNc1nc(-c2ccc(F)cc2)cs1)c1ccccc1` as the molecule, how does the EC50 read?
**A.** The EC50 was 2.17 µM.

**Q.** Which EC50 does the source give for `O=c1c2ccccc2c(C=Nc2ccc(O)cc2)c(O)n1Cc1ccccc1` here?
**A.** The EC50 was 6.21 µM.

**Q.** `CCc1ccc2[nH]c(=O)c(C3C(C#N)=C(N)Oc4c3ccc3cccnc43)cc2c1` (stereo not drawn) was tested. Which EC50 did it give?
**A.** Its EC50 is 1.63 µM.

**Q.** How did the EC50 turn out when `Cc1cccc(C)c1NC(=O)CN(C)CC(=O)Nc1sc2c(c1C(N)=O)CCC2` was run?
**A.** The EC50 was > 15 µM (inactive).

**Q.** With `O=C(N/N=C/c1cc(Br)ccc1O)C(=O)Nc1ccccc1OC(F)(F)C(F)F` as the molecule, how does the EC50 read?
**A.** Its EC50 is 1.44 µM.

**Q.** `COc1ccc(-c2nc(NC(C)=O)sc2-c2ccc(OC)cc2)cc1` was tested. Which EC50 did it give?
**A.** The EC50 was 4.05 µM.

**Q.** With `CCC(=O)N1N=C(c2c(O)n(CCc3ccccc3)c(=O)[nH]c2=O)CC1c1ccc(OC)c(OC)c1` (stereo not drawn) as the molecule, how does the EC50 read?
**A.** Its EC50 is 0.991 µM.

**Q.** With `CCC(NC(=S)NC1CCCCC1)c1ccc(C(C)C)cc1` (stereo not drawn) as the molecule, how does the EC50 read?
**A.** The EC50 was 5.2 µM.

**Q.** How did the EC50 turn out when `CC(=O)OCC1=C(C(=O)O)N2C(=O)C(NC(=O)c3ccc(F)cc3)C2SC1` (stereo not drawn) was run?
**A.** The EC50 was 2.9 µM.

**Q.** Which EC50 does the source give for `COc1cccc(C2C3=C(N=c4s/c(=C\c5cccc(O)c5)c(=O)n42)c2ccccc2CC3)c1OC` (stereo not drawn) here?
**A.** The EC50 was 5.37 µM.

**Q.** With `Cc1cc(/C=C2\SC(=S)N(C)C2=O)c(C)n1-c1ccc(O)cc1` as the molecule, how does the EC50 read?
**A.** The EC50 was 2.09 µM.

**Q.** How did the EC50 turn out when `O=C(NCc1ccc2c(c1)OCO2)Nc1ccc(F)cc1` was run?
**A.** Its EC50 is > 15 µM (inactive).

**Q.** For `C[C@@H]1CC[C@@]2(OC1)O[C@H]1C[C@H]3[C@@H]4CC=C5C[C@@H](O)[C@H](O)C[C@]5(C)C4CC[C@]3(C)[C@H]1[C@@H]2C` (stereo partly drawn), which EC50 is on record?
**A.** The EC50 was 4.12 µM.

**Q.** How did the EC50 turn out when `Clc1ccc(-c2csc(Nc3ccccc3)[n+]2Cc2ccco2)c(Cl)c1` was run?
**A.** The EC50 was 3.35 µM.

**Q.** `COc1ccc(/C=C2\Sc3ccc(C(=O)N4CCCC4)cc3N(C)C2=O)cc1OC` was tested. Which EC50 did it give?
**A.** Its EC50 is 0.515 µM.

**Q.** `COc1ccc2[nH]c3c(=O)n(/N=C/c4ccc(OC)c(CN5CCCC5)c4)c(C)nc3c2c1` was tested. Which EC50 did it give?
**A.** Its EC50 is 7.06 µM.

**Q.** For `CCOc1ccc(C)cc1S(=O)(=O)NC1CCCCCC1`, which EC50 is on record?
**A.** The EC50 was > 15 µM (inactive).

**Q.** `CCC(=C/c1sc2ccc3ccccc3c2[n+]1C)/C=C1\Sc2ccc3ccccc3c2N1C` was tested. Which EC50 did it give?
**A.** Its EC50 is 2.67 µM.

**Q.** For `O=C(O)c1ccc(N/N=C/c2ccc(-c3cc(Cl)ccc3Cl)o2)cc1`, which EC50 is on record?
**A.** The EC50 was 2.48 µM.

**Q.** How did the EC50 turn out when `O=C(Nc1nc(-c2ccccc2)c(-c2ccccc2)o1)c1ccc(F)cc1` was run?
**A.** The EC50 was 0.561 µM.

**Q.** For `CC(C)(C)c1ccc(C(=O)CC(=O)c2cc(Cl)ccc2O)cc1`, which EC50 is on record?
**A.** Its EC50 is 0.349 µM.

**Q.** How did the EC50 turn out when `COc1cc(/C=N\NC(=O)c2ccc(Cn3cc(Br)c([N+](=O)[O-])n3)o2)cc(OC)c1O` was run?
**A.** Its EC50 is 4.97 µM.

**Q.** With `COc1c(N2CCN(C(=S)Nc3ccc(F)cc3)C(C)C2)c(F)cc2c(=O)c(C(=O)O)cn(C3CC3)c12` (stereo not drawn) as the molecule, how does the EC50 read?
**A.** The EC50 was 3.37 µM.

**Q.** How did the EC50 turn out when `COc1ccccc1N=C1NC(=O)/C(=C/c2ccc(N(C)C)cc2)S1` was run?
**A.** The EC50 was 6.08 µM.

**Q.** Which EC50 does the source give for `Cc1nn(-c2ccccc2)c(Cl)c1C1C(C#N)=C(N)OC2=C1C(=O)CCC2` (stereo not drawn) here?
**A.** The EC50 was 1.25 µM.

**Q.** With `O=C(NCc1ccccn1)C(=O)Nc1nc(C23CC4CC(CC(C4)C2)C3)cs1` as the molecule, how does the EC50 read?
**A.** The EC50 was 1.65 µM.

**Q.** With `O=C(Nc1ccc(OC(F)F)cc1)Nc1cccc(C(F)(F)F)c1` as the molecule, how does the EC50 read?
**A.** Its EC50 is 6.7 µM.

**Q.** With `Oc1ccc(-c2nc3c4c(ncn3n2)-c2ccccc2CC42CCCC2)cc1` as the molecule, how does the EC50 read?
**A.** The EC50 was 0.843 µM.

**Q.** `O=C(CCl)c1ccc(Cc2ncc(C(F)(F)F)cc2Cl)s1` was tested. Which EC50 did it give?
**A.** The EC50 was 3.69 µM.

**Q.** How did the EC50 turn out when `Oc1ccccc1N=Cc1c(O)ccc2oc3c(c12)CCCC3` was run?
**A.** The EC50 was 5.52 µM.

**Q.** With `C/C(=N\Nc1cc(N2CCCCC2)nc(C)n1)c1ccc(Br)cc1` as the molecule, how does the EC50 read?
**A.** The EC50 was 4.46 µM.

**Q.** Which EC50 does the source give for `Nc1c(Cl)cc(-c2csc(N3CCCC3c3nc4cc(Cl)c(Cl)cc4n3CCOCCO)n2)cc1Cl` (stereo not drawn) here?
**A.** Its EC50 is > 15 µM (inactive).
